# Results reported in publication PMC9959048, “Lipidation of Naturally Occurring α-Helical Antimicrobial Peptides as a Promising Strategy for Drug Design” (International Journal of Molecular Sciences, 2023).
# Residues, ends and D or L forms follow the SMILES beside them. *: point of attachment. Octanoyl = CCCCCCCC(=O)*
# Assays:
# S. aureus PCM1650 = assay type: cell-based, Staphylococcus aureus; details: PCM1650, 24 h
# How it was run: (§1)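 MIC, serial microdilution (CLSI). Bacteria: MHB, 37 °C, 24 h. Fungi: RPMI-1640/MOPS + 2% glucose, 35 °C, 24 h. OD600 read; % growth inhibition vs untreated control (100%) and medium-only blank (0%). n = 3.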
# S. aureus PCM2054 = assay type: cell-based, Staphylococcus aureus; details: PCM2054, 24 h
# How it was run: as §1
# POPG LUVs = experiment: Isothermal titration calorimetry, binding to POPG LUVs; details: ITC, 25 °C, 0.05 or 0.07 mM peptide titrated with 1.3 or 1.8 mM POPG LUVs; one set of sites model (C10-LL-I: two sets of sites, first line)
# Procedure: Large unilamellar vesicles (LUV) were obtained by extrusion of MLV liposomes through polycarbonate membrane filters with a pore diameter of 100 nm (Whatman International Ltd., Kent, UK) using a mini-extruder (Avanti Polar Lipids, Inc., Alabaster, AL, USA).
# The thermodynamic parameters of the interactions of the lipopeptides with POPG and POPC liposomes were determined by isothermal titration calorimetry (ITC). Measurements were performed at 25 °C using an AutoITC microcalorimeter (MicroCal Inc., Northampton, MA, USA) with a 1.4491 mL sample and reference cells. The experiment consisted in the titration of a buffered peptide solution with a concentration of 0.05 and/or 0.07 mM with a buffered solution containing POPG or POPC LUVs with a lipid concentration of 1.3 and 1.8 mM (10.02 µL; 29 injections, 2 µL for the first injection only), as it was described previously. The result of the titration was a thermogram showing a series of peaks corresponding to the titration steps. A titration curve was obtained after integration of the peak areas. The obtained isotherms were fitted to the “one set of sites” or “two sets of sites” models available in the ORIGIN 7.0 (MicroCal Inc., Northampton, MA, USA), which made it possible to determine the enthalpy (ΔH), the binding constant (KITC) and the stoichiometry (N) of the interactions between the lipopeptide and the lipids. The following formula was used to calculate the entropy change (ΔS) and the Gibbs free energy (ΔG): ΔG=−RTln(55.5KITC)=ΔH−TΔS where: factor 55.5 is the molar concentration of water, R is the gas constant (1.986 cal·mol^−1·K^−1), and T is the absolute temperature.
compound,measurement,setting,value
CCCCCCCC(=O)N[C@H](C(=O)N[C@@H](CCCCN)C(=O)N[C@@H](CCCCN)C(=O)N[C@H](C(=O)N[C@@H](CC(C)C)C(=O)N[C@@H](CO)C(=O)N[C@@H](CCCCN)C(=O)N[C@H](C(=O)N[C@@H](CCCCN)C(=O)N[C@@H](CCCCN)C(=O)N[C@@H](CC(C)C)C(=O)N[C@@H](CC(C)C)C(=O)N[C@@H](CCCCN)C(N)=O)[C@@H](C)CC)[C@@H](C)CC)[C@@H](C)CC [C8-LK6] (Octanoyl-IKKILSKIKKLLK-NH2),"MIC, S. aureus PCM1650",S. aureus PCM1650,12.5 µg/mL
same,"MIC, S. aureus PCM2054",S. aureus PCM2054,12.5 µg/mL
same,"pKITC, POPG",POPG LUVs,6.31 ± 0.34
